Measurements: ChEMBL document CHEMBL4364280 (Eur J Med Chem, 2019)
The source made the active and inactive calls. The calls are words filed in the database; no cut-off is given here.

How the values were obtained:
[1] = molecular target: T1, 5-hydroxytryptamine receptor 6 (Homo sapiens, UniProt P50406); test: Agonist activity at recombinant human 5HT6 receptor expressed in CHOK1 cells co-expressing Galpha16/aequorin assessed as increase in calcium mobilization and measured for 60 secs in presence of coelenterazine by luminescence assay relative to control; type: functional, cell-based
T1 sequence (P50406 whole entry): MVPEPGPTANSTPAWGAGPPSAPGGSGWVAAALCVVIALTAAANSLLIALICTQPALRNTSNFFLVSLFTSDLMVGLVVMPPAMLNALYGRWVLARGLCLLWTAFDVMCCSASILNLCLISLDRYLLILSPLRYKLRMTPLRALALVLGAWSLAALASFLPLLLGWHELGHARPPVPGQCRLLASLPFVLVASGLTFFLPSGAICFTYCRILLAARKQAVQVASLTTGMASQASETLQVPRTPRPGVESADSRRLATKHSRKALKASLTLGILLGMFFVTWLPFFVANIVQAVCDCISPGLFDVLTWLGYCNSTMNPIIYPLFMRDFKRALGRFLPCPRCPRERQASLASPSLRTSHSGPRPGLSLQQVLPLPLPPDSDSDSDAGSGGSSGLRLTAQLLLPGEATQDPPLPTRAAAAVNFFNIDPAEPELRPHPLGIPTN

[2] = molecular target: D(2) dopamine receptor (Homo sapiens, UniProt P14416); test: Displacement of [3H]-raclopride from human D2L receptor expressed in human HEK293 cells incubated for 1 hr by radioligand binding assay; type: cell-based
Sequence of D(2) dopamine receptor (P14416 whole entry): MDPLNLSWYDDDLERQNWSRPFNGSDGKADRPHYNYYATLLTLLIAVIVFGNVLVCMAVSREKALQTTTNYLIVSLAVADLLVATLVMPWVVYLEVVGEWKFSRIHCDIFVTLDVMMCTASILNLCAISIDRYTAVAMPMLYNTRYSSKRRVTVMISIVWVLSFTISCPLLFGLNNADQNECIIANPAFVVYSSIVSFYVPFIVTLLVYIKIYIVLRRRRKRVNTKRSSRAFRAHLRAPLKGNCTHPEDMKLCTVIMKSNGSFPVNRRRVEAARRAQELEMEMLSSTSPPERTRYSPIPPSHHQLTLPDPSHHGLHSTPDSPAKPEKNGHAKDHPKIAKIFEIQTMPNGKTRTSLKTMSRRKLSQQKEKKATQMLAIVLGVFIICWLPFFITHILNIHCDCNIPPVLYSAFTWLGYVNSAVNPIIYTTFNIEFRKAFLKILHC

[3] = molecular target: 5-hydroxytryptamine receptor 7 (Homo sapiens, UniProt P34969); test: Displacement of [3H]-5-CT from human 5-HT7R expressed in human HEK293 cells assessed as inhibitory constant incubated for 1 hr by radioligand binding assay; type: cell-based
Sequence of 5-hydroxytryptamine receptor 7 (P34969 whole entry): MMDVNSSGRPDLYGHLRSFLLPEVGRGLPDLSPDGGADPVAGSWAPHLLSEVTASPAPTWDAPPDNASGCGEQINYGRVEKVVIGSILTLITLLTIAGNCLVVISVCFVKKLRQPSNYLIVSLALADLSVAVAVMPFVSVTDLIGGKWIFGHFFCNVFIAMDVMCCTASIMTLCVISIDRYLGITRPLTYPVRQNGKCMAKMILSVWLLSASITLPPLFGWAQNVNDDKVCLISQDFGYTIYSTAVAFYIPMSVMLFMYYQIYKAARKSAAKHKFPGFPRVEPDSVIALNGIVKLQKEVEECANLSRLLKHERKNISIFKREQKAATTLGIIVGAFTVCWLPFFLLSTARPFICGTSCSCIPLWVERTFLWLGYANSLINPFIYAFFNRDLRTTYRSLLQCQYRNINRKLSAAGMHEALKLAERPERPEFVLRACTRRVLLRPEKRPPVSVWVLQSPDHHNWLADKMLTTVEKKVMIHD

[4] = molecular target: T2, 5-hydroxytryptamine receptor 1A (Homo sapiens, UniProt P08908); test: Displacement of [3H]-8-OH-DPAT from human 5-HT1A expressed in human HEK293 cells assessed as inhibitory constant incubated for 1 hr by radioligand binding assay; type: cell-based
T2 sequence (P08908 whole entry): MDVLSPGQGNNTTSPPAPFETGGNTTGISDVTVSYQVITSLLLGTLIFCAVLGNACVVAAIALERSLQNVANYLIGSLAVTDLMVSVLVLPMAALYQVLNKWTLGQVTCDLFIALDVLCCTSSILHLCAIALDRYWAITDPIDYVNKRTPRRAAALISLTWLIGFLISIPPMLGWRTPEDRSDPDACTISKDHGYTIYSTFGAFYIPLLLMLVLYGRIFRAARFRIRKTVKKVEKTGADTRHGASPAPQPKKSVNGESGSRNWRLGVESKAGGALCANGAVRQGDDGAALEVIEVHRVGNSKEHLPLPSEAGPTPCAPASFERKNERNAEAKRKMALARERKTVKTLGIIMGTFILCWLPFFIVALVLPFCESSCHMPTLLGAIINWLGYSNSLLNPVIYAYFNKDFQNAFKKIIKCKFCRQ

[5] = molecular target: T1, 5-hydroxytryptamine receptor 6; test: Displacement of [3H]-LSD from human 5-HT6R expressed in human HEK293 cells incubated for 1 hr by radioligand binding assay; type: cell-based
[6] = molecular target: 5-hydroxytryptamine receptor 2A (Homo sapiens, UniProt P28223); test: Displacement of [3H]-Ketanserin from human 5-HT2A expressed in CHO-K1 cells incubated for […] by radioligand binding assay; type: cell-based
Sequence of 5-hydroxytryptamine receptor 2A (P28223 whole entry): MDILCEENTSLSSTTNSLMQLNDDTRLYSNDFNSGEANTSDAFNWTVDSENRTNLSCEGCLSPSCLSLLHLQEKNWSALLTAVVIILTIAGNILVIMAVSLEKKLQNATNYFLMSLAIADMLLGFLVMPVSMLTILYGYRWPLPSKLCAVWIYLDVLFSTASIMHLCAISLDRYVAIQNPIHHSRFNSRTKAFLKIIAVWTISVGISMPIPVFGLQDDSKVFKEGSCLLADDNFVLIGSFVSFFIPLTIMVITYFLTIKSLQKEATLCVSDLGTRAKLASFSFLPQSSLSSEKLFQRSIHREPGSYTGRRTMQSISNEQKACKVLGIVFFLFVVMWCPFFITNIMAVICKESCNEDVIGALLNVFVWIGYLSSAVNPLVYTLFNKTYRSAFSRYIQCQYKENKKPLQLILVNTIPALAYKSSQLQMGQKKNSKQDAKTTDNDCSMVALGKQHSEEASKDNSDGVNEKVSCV

[7] = Mutagenicity in Salmonella typhimurium TA100 assessed as increase in revertant colonies at 10 uM preincubated for 90 mins and measured after 72 hrs by Ames test; type: toxicity; settings: salmonella enterica subsp. enterica serovar typhimurium
[8] = Selectivity ratio of CC50 for cytotoxicity against human SH-SY5Y cells to ratio of Ki for human 5-HT6R expressed in human HEK293 cells
[9] = tested on: Rattus norvegicus; test: Antidepressant activity in Wistar rat assessed as ambulation-X movement moved at 1 mg/kg, ip pretreated for 60 mins and measured for 5 mins by open field test (reference value: 213 +/- 13); type: functional
[10] = Ratio of test compound CC50 to doxorubicin CC50 for cytotoxicity against human SH-SY5Y cells incubated for 72 hrs by MTS assay; type: cell-based
[11] = tested on: Rattus norvegicus; test: Antidepressant activity in Wistar rat assessed as ambulation-Y movement moved at 1 mg/kg, ip pretreated for 60 mins and measured for 5 mins by open field test (reference value: 187 +/- 14); type: functional
[12] = tested on: Rattus norvegicus; test: Antidepressant activity in Wistar rat assessed as reduction in immobility at 1 mg/kg, ip measured after 60 mins by forced swim test; type: functional; design: scale not given: the % may be the effect or the level left
[13] = tested on: Rattus norvegicus; test: Antidepressant activity in Wistar rat assessed as rear movement moved at 1 mg/kg, ip pretreated for 60 mins and measured for 5 mins by open field test (reference value: 68 +/- 7); type: functional
[14] = Mutagenicity in Salmonella typhimurium TA100 assessed as fold increase over MCB at 1 uM preincubated for 90 mins and measured after 72 hrs by Ames test; type: toxicity; settings: salmonella enterica subsp. enterica serovar typhimurium
[15] = tested on: Rattus norvegicus; test: Antidepressant activity in Wistar rat assessed as total distance moved at 1 mg/kg, ip pretreated for 60 mins and measured for 5 mins by open field test (reference value: 929 +/- 36 cm); type: functional
[16] = Mutagenicity in Salmonella typhimurium TA100 assessed as increase in revertant colonies at 1 uM preincubated for 90 mins and measured after 72 hrs by Ames test; type: toxicity; settings: salmonella enterica subsp. enterica serovar typhimurium
[17] = Mutagenicity in Salmonella typhimurium TA100 assessed as fold increase over MCB at 10 uM preincubated for 90 mins and measured after 72 hrs by Ames test; type: toxicity; settings: salmonella enterica subsp. enterica serovar typhimurium
[18] = molecular target: T1, 5-hydroxytryptamine receptor 6; test: Antagonist activity at recombinant human 5HT6 receptor expressed in CHOK1 cells co-expressing Galpha16/aequorin assessed as reduction in serotonin-induced calcium mobilization flux preincubated for 30 mins followed by serotonin addition in presence of coelenterazine h by luminescence assay; type: functional, cell-based
[19] = tested on: SH-SY5Y; test: Cytotoxicity against human SH-SY5Y cells assessed as decrease in cell viability at 100 uM incubated for 72 hrs by MTS assay; type: cell-based
[20] = tested on: Rattus norvegicus; test: Antidepressant activity in Wistar rat assessed as reduction in immobility at 10 mg/kg, ip measured after 30 mins by forced swim test; type: functional, organism-based
[21] = tested on: Rattus norvegicus; test: Antidepressant-like activity in Wistar rat assessed as total distance moved at 0.3 mg/kg, ip pretreated for 60 mins and measured for 5 mins by open field test (reference value: 2165 +/- 119 cm); type: functional
[22] = tested on: Rattus norvegicus; test: Antidepressant activity in Wistar rat assessed as ambulation-X movement moved at 0.3 mg/kg, ip pretreated for 60 mins and measured for 5 mins by open field test (reference value: 190 +/- 12); type: functional
[23] = tested on: Rattus norvegicus; test: Antidepressant activity in Wistar rat assessed as reduction in immobility at 0.1 mg/kg, ip measured after 60 mins by forced swim test; type: functional, organism-based
[24] = tested on: Rattus norvegicus; test: Antidepressant activity in Wistar rat assessed as ambulation-Y movement moved at 0.3 mg/kg, ip pretreated for 60 mins and measured for 5 mins by open field test (reference value: 187 +/- 15); type: functional
[25] = tested on: Rattus norvegicus; test: Antidepressant activity in Wistar rat assessed as reduction in immobility at 0.3 to 3 mg/kg, ip measured after 60 mins by forced swim test; type: functional; design: scale not given: the % may be the effect or the level left
[26] = tested on: Rattus norvegicus; test: Antidepressant activity in Wistar rat assessed as rear movement moved at 0.3 mg/kg, ip pretreated for 60 mins and measured for 5 mins by open field test (reference value: 57 +/- 6); type: functional
[27] = tested on: Rattus norvegicus; test: Antidepressant activity in Wistar rat assessed as reduction in immobility at 0.1 to 1 mg/kg, ip measured after 60 mins by forced swim test; type: functional, organism-based

| Ki [2] | Ki [3] | Ki [4] | Ki [5] | Ki [6] | Compound | also measured |
| --- | --- | --- | --- | --- | --- | --- |
| 2.36 µM | 9.25 µM | 5.47 µM | 0.129 µM |  | CN1CCN(c2nc(N)nc(COc3ccccc3Cl)n2)CC1 |  |
| 0.674 µM | 5.82 µM | 7.5 µM | 0.148 µM |  | CN1CCN(c2nc(N)nc(COc3cccc(Cl)c3)n2)CC1 |  |
| 4.37 µM | 15.2 µM | 7.69 µM | 0.911 µM |  | Cc1cc(Cl)ccc1OCc1nc(N)nc(N2CCN(C)CC2)n1 |  |
| 4.25 µM | 0.514 µM | 14.2 µM | 0.087 µM | 17.2 µM | Cc1ccccc1OCc1nc(N)nc(N2CCN(C)CC2)n1 |  |
| 1.35 µM | 9.53 µM | 8.73 µM |  | 2.63 µM | CN1CCN(c2nc(N)nc(COc3ccccc3)n2)CC1 |  |
| 1 µM | 38.7 µM | 4.54 µM | 0.023 µM | 1.83 µM | CC(Oc1ccccc1Cl)c1nc(N)nc(N2CCN(C)CC2)n1 (stereo not drawn) | Activity [7]: 11; Selectivity ratio [8]: >4000; Activity [9]: 269; selectivity ratio at 72 h [10]: 100; Activity [11]: 227; Activity [12]: 22%; Activity [13]: 46; fold change (FC) [14]: 0.73; Activity [15]: 1005 cm; Activity [16]: 8; fold change (FC) [17]: 1; Emax [1]: 1%; Kb [18]: 0.003 µM; Activity [19]: Toxic |
| 1.23 µM | 3.8 µM | 1.61 µM | 0.128 µM |  | CN1CCN(c2nc(N)nc(COc3ccc(Cl)cc3Cl)n2)CC1 |  |
| 50.1 µM | 98.4 µM | > 1000 µM | 3.57 µM | 11.6 µM | CN1CCN(c2nc(N)nc(CS(=O)(=O)c3ccccc3Cl)n2)CC1 |  |
| 0.329 µM | 0.614 µM | 1.68 µM | 0.126 µM |  | CN1CCN(c2nc(N)nc(CSc3ccccc3Cl)n2)CC1 |  |
| 0.74 µM | 10.7 µM | 15.1 µM | 0.207 µM | 2.27 µM | Cc1cccc(OCc2nc(N)nc(N3CCN(C)CC3)n2)c1 |  |
| 1.22 µM | 5.84 µM | 3.58 µM | 0.355 µM | 0.197 µM | Cc1cc(OCc2nc(N)nc(N3CCN(C)CC3)n2)ccc1Cl |  |
| 2.92 µM | 16.1 µM | 28.5 µM | 0.235 µM |  | Cc1ccc(OCc2nc(N)nc(N3CCN(C)CC3)n2)cc1 |  |

The next lines start with the molecule.

| Compound | Ki [2] | Ki [3] | Ki [4] | Ki [5] | Ki [6] | also measured |
| --- | --- | --- | --- | --- | --- | --- |
| CN1CCN2c3ccccc3Cc3ccccc3C2C1 (stereo not drawn) |  |  |  |  |  | Emax [1]: 1% |
| CN1CCN(c2nc(N)nc(C[Se]c3ccccc3)n2)CC1 | 0.506 µM |  |  |  |  |  |
| O=S(=O)(c1ccccc1)c1cnc2c(N3CCNCC3)cccc2c1 |  |  |  |  |  | Emax [1]: 2% |
| CC(Oc1cccc(Cl)c1)c1nc(N)nc(N2CCN(C)CC2)n1 (stereo not drawn) | 0.566 µM | 8.36 µM | 3.44 µM | 0.118 µM | 0.59 µM |  |
| COc1ccc(S(=O)(=O)Nc2cc(Cl)cc(Cl)c2OC)cc1N1CCNCC1 |  |  |  |  |  | Activity [20]: Active |
| CC([Se]c1ccccc1)c1nc(N)nc(N2CCN(C)CC2)n1 (stereo not drawn) | 0.656 µM |  |  |  |  |  |
| Cc1ccc(C(C)C)c(OCc2nc(N)nc(N3CCN(C)CC3)n2)c1 |  |  |  | 0.011 µM |  | Activity [21]: 2833 cm; Activity [7]: 4; Activity [22]: 307; Activity [23]: inactive; Selectivity ratio [8]: >4000; selectivity ratio at 72 h [10]: 100; Activity [24]: 290; Activity [25]: 20%; Activity [26]: 56; fold change (FC) [14]: 0.55; Activity [16]: 4.67; fold change (FC) [17]: 0.47; Emax [1]: 1%; Kb [18]: 0.0046 µM; Activity [19]: Toxic |
| CN1CCN(c2nc(N)nc(CSc3ccccc3)n2)CC1 | 0.734 µM | 2.87 µM | 4.39 µM | 0.026 µM | 0.197 µM |  |
| CC(Sc1ccccc1Cl)c1nc(N)nc(N2CCN(C)CC2)n1 (stereo not drawn) | 0.52 µM | 4.57 µM | 3.38 µM | 0.019 µM | 0.407 µM | Activity [7]: 8.33; Selectivity ratio [8]: >4000; selectivity ratio at 72 h [10]: 100; Activity [27]: inactive; fold change (FC) [14]: 0.94; Activity [16]: 10.33; fold change (FC) [17]: 0.76; Emax [1]: 1%; Kb [18]: 0.0029 µM; Activity [19]: Toxic |
